Experimental data taken from US20240041050A1, “CELL PENETRATING PEPTIDE MEDIATED RNA TRANSDUCTION WITHIN INSECT CELLS” (PIONEER HI-BRED INTERNATIONAL, INC., priority 2020, published 2024).
Peptide text beside a SMILES is read from it.

Experiments:
Sf9 cells = assay: CPP-mediated delivery of mCherry mRNA cargo into insect cells; assay type: cell-based, Spodoptera frugiperda; details: complex of 75 μM unlabeled CPP and 10 μg mCherry mRNA, overnight
From the text: (§1) Sample preparation and analysis methods were based on those previously reported (Jafari et al. (201 4) “Serum stability and physicochemical characterization of a novel amphipathic peptide C6M 1 for siRNA delivery”, PLoS One, 9(5), e97797; and Gillet et al. (2017) “Investigating Engineered Ribonucleoprotein Particles to Improve Oral RNAi Delivery in Crop Insect Pests”, Frontiers in Physiology, 8(256), doi: 10.3389/fphys.2017.00256). Reagents are described in Examples 1 and 2. Nanocomplex samples were prepared in one of several ways, depending on type of CPP, RNA, or assay. […] Reaction volumes added to cells were 6.38 μL CPP and 6.38 μL mRNA. Final optimal CPP concentration was assessed by amount of fluorescent signal apparent within cells. For insect cell-based assays with CPP-YFP·Cy3-dsRNA or CPP·dsRNA, first a complex formation solution was prepared in molecular biology-grade water containing 90 mg·mL^−1 maltose, 9 mg·mL^−1 mannitol, 392. 16 mM CaCI2, pH 7.0, and vacuum-filtered using Corning™ Disposable Vacuum Filter and Storage System containing a cellulose nitrate filter. Then, increasing amounts of CPP-YFP were added to Cy3-dsRNA, from a molar ratio (CPP-YFP:Cy3-dsRNA) of 1:4 through 8:1 and incubated protected from light at 25° C. for 90 minutes prior to assessment via gel shift and DLS. Reaction volumes added per cell well were comprised of 17 μL reaction solution, 1 μL CPP, 1 μL dsRNA, and 1 μL molecular biology grade water; reaction sizes for larger total volumes were increased in increments of 20 μL and component ratio was held constant to maintain an ionic strength of […]. Final optimal molar ratio selected for cell experiments were determined by increase of the apparent size of the Cy3-dsRNA band on a native agarose gel (FIG. 2A and FIG. 2B), and/or appearance and increase in size of the complex peak detected by a Zetasizer Ultra (Malvern Panalytical, Malvern, United Kingdom) DLS instrument (FIG. 2C). […] Final optimal BAPC1 concentration was assessed by amount of fluorescent signal apparent within cells. […]

DU182A cells = assay: as above; assay type: cell-based, Diabrotica undecimpunctata; details: complex of 75 μM unlabeled CPP and 10 μg mCherry mRNA, overnight
From the text: as §1

Q: Which results are given for `N=C(N)NCCC[C@H](NC(=O)[C@H](Cc1c[nH]c2ccccc12)NC(=O)[C@H](CCCNC(=N)N)NC(=O)[C@@H](N)CS)C(=O)N[C@@H](Cc1c[nH]c2ccccc12)C(=O)N[C@@H](CCCCN)C(=O)N[C@@H](CS)C(=O)N[C@@H](CS)C(=O)N[C@@H](CCCCN)C(=O)N[C@@H](CCCCN)C(=O)O` [CyLoP-1, CRWRWKCCKK] (H-CRWRWKCCKK-OH; N-terminus and C-terminus assumed)?
A: fluorescent protein translated from delivered mCherry mRNA (fluorescent signal inside cells) (Sf9 cells): Translation of mRNA into a functional fluorescent protein occurred; fluorescent protein translated from delivered mCherry mRNA (fluorescent signal inside cells) (DU182A cells): Translation of mRNA into a functional fluorescent protein occurred
